The values below come from EP1113802B1, “ANTIVIRAL COMBINATIONS OF […] ADEFOVIR” (priority 1998, dated 2000).

Usually IC50 stands for the midpoint of a concentration-inhibition curve.

One series concerns HBV. The following applies: to the end of the second year of a two year study; cited from earlier work.
The test system of another series is WT HBV. In words: PMEA inhibition of HBV DNA production, HepG2 cells transiently transfected with HBV genome plasmid. In kind it is cell-based. The following applies: Hepatitis B virus, 168 h, WT construct, day 7, read-out: IC50 PMEA (95%Cl). The method, then:
(§1) The human hepatobtastoma cell line (Hep-G2-2.2.15) which constitutively produces infectious HBV was seeded into 96 well microtiter plates at a density of 5 x 10^3 cells per well. These cells were treated with a combination of lamivudine and PMEA on triplicate plates. Culture media containing drugs was replenished every other day for 9 days, at which time supernatants were collected and analyzed for HBV content. The lamivudine/PMEA combination was tested twice in triplicate in matrix fashion. […] Data were normalised to values obtained with non-drug treated cells, and expressed as a percent of control for analysis. […] Briefly, HBV detection was performed by "capturing" virus from supernatants on Anti-HBsAg coated plates, washing, denaturing to release HBV DNA, performing PCR with biotinylated primers, streptavidin capture of biotinylated PCR products with concomitant probe hybridization, addition of substrate, and reading optical densities of the colorimetric reaction. Dilutions of a standardized HBV-containing supernatant were included on every plate, and HBV DNA concentrations of test wells were calculated from this HBV standard curve. The useful range of detection is at least .045 to 45 fg of HBV DNA, where 30 copies of the genome can be reliably detected. […]

Series [1] concerns WT HBV produced by the 2.2.15 cells. The following applies: Heijtink et al. 1993, read-out: IC50 of PMEA, literature value using the same cell line; cited from earlier work.
The subject of the next series is HBV L528M. In words: PMEA inhibition of HBV DNA production, HepG2 cells transiently transfected with HBV genome plasmid. In kind it is cell-based, hepatitis B virus. The procedure:
(§2) The human hepatobtastoma cell line (Hep-G2-2.2.15) which constitutively produces infectious HBV was seeded into 96 well microtiter plates at a density of 5 x 10^3 cells per well. These cells were treated with a combination of lamivudine and PMEA on triplicate plates. Culture media containing drugs was replenished every other day for 9 days, at which time supernatants were collected and analyzed for HBV content. The lamivudine/PMEA combination was tested twice in triplicate in matrix fashion. Experiment 1 utilised a lamivudine range of 100 nM to 0.14 nM (3-fold dilutions in columns), and PMEA, 9-[(R)-2-(phosphonomethoxy)ethyl]adenine (adefovir), at concentrations of 1 µM to 10 nM (3.16 fold dilutions in rows). Experiment 2 was performed with dilutions of Lamivudine ranging from 100nM to .045 nM (in 3-fold dilutions in columns), and a PMEA range of 5 µM to 0.16 nM (3.16 fold dilutions in rows). Both drugs were diluted in a separate 96 well microtiter plate, and subsequently transferred onto plates containing the cell monolayers. Cells are grown in 150 µl RPMI 1640 supplemented with 2 mM L-Glutamine and 10% fetal bovine serum. Prior to transfer of drug, 120 µl of media was removed from the cells, leaving 30 µl on the monolayers to prevent drying. 90 µl of fresh media without drug was added, followed by the addition of 30 µl of 5X drug dilutions. Lamivudine and PMEA were each tested on their respective plates individually at the same concentrations. Data were normalised to values obtained with non-drug treated cells, and expressed as a percent of control for analysis. The method used for detection of HBV has been previously described (Jansen RW, Johnson LC, Averett, DR. High-Capacity in vitro assessment of anti-hepatitis B virus compound selectivity by a virion-specific polymerase chain reaction assay. Antimicrob Agents Chem 1993; 37 (3): 441-447.). Briefly, HBV detection was performed by "capturing" virus from supernatants on Anti-HBsAg coated plates, washing, denaturing to release HBV DNA, performing PCR with biotinylated primers, streptavidin capture of biotinylated PCR products with concomitant probe hybridization, addition of substrate, and reading optical densities of the colorimetric reaction. Dilutions of a standardized HBV-containing supernatant were included on every plate, and HBV DNA concentrations of test wells were calculated from this HBV standard curve. The useful range of detection is at least .045 to 45 fg of HBV DNA, where 30 copies of the genome can be reliably detected. Samples were tested in conjunction with both positive (.448 fg/ul plasmid DNA) and negative (RPMI medium supplemented with 2 mM L-Glutamine and 10% Fetal calf serum) controls. The average IC50 and standard error of the IC50s for the triplicate plates were calculated using SAS nonlinear regression to fit data to the Hill equation for each concentration response curve. When only a single determination of an IC50 for a particular dose combination could be made, the average of the standard errors from adjacent concentrations was used to estimate the standard error. Fractional inhibitory concentrations (FIC50) were calculated for each combination and plotted using the isobologram representation (Berenbaum, M.C. (1985) The Expected Effect ofa Combination of Agents: the General Solution. J. Theor. Biol. 114, 413-431). To assess statistical significance of synergy or antagonism, an unpaired t-test was used to compare each sum of paired FIC50 values with the theoretical value of 1. P values less than 0.05 were considered statistically significant. Comparison of P values between experiments must be interpreted with great care, as the experiments utilized different test concentration ranges (or ranges useable by the isobologram method). In some cases not all concentrations tested could support calculation of an IC50, since response was inhibited to a greater extent than 50 percent of control for all doses. […]

The next series relates to HBV M552I. The description is as above. In kind it is cell-based, hepatitis B virus. The method, then: as §2
Another series has as its system HBV L528M/ M552V. Described as above. The format is cell-based, hepatitis B virus. The method, then: as §2
The test system of the next series is HBV M552V. The description is as above. In kind it is cell-based, hepatitis B virus. The method, then:
as §2

Series [2] deals with Human hepatitis B DNA polymerase which expresses lamivudine codons. The following applies: Xiong et al. 1997, Abstract No. 1211; cited from earlier work.
The next series can be described thus: in vitro. The format is cell-based. Conditions: human; HepG2 cells; read-out: cytotoxic IC50. The method, then:
The IC50 for PMEA was determined against wild type (WT) and lamivudine resistant HBV transiently expressed in a cell culture system as described below. HepG2 cells were transiently transfected with plasmid containing the HBV genome that had the wild type sequence or contained the following lamivudine resistant mutations in the reverse transcriptase gene; M552I, M552V, L528M, L528MM552V. […] HepG2 cells were seeded into 96-well Costar plates at 6300 cells per well in 150 µl of HepG2 media (Dulbecco's Modified Eagle Medium (DMEM), containing 10% fetal bovine serum) and were incubated overnight at 37°C. For each transfected well, 75 ng of plasmid DNA and 0.5 µl of lipofectamine (Gibco) were incubated together for 30 minutes at room temperature in 12.5 µl of OptiMem (Gibco) prior to addition of DNA/lipofectamine mixture to cells. Each well was rinsed with 150 µl of unsupplemented DMEM. […] HBV DNA levels were quantitated from media harvested from cells on day 7 using the methods described in Jansen RW, Johnson LC, Averett, DR. […] Cytotoxicity due to drug treatment was determined using the DNA stain Bisbenzimide (H33342 3HCl 4H2O; Calbiochem Company, La Jolla CA). […] Fluorescent values per well were determined with a Millipore Cytofluor 2350 fluorescent plate reader (excitation, 355 nm; emission, 460 nm; arbitrary units). […]

Series [3] relates to WT HBV produced by the 2.2.15 cells. In words: PMEA inhibition of HBV DNA production in 2.2.15 stable HBV-producer cells. Conditions: Hepatitis B virus, 168 h, HBV DNA in media on day 7, read-out: IC50 PMEA (95%Cl). The format is cell-based. The procedure: as §1

Each structure is given as a SMILES string. Like-named read-outs stand apart in the source and are kept apart here.

Turning to `Nc1ccn([C@@H]2CS[C@H](CO)O2)c(=O)n1` (relative stereo) [lamivudine, (2R,cis)-4-amino-1-(2-hydroxymethyl-1,3-oxathiolan-5-yl)-pyrimidin-2-one], the “patients maintaining undetectable levels of virus” value in the series with HBV was 52%.
As for `Nc1ncnc2c1ncn2CCOCP(=O)(O)O` [PMEA, 9-[(R)-2-(phosphonomethoxy)ethyl]adenine], the concentration for half-maximal inhibition (IC50) in the series with WT HBV is 530 nM; in series [1], 700 nM; with HBV L528M (Hepatitis B virus, 168 h, L528M construct, transfected HepG2 cells, day 7, read-out: IC50 PMEA (95%Cl)), 870 nM; in the series on HBV M552I (Hepatitis B virus, 168 h, M552I construct, transfected HepG2 cells, day 7, read-out: IC50 PMEA (95%Cl)), 7500 nM; in the series with HBV L528M/ M552V (Hepatitis B virus, 168 h, L528M/ M552V construct, transfected HepG2 cells, day 7, read-out: IC50 PMEA (95%Cl)) it was 1300 nM; with HBV M552V (Hepatitis B virus, 168 h, M552V construct, transfected HepG2 cells, day 7, read-out: IC50 PMEA (95%Cl)), 9800 nM. Further, the IC50 in “in vitro” is 25000 to 40000 nM; in series [3], 430 nM. Besides, the “x-fold change in IC50” value amounted to 1.6 in the series on HBV L528M (L528M versus WT HBV), 14 with HBV M552I (M552I versus WT HBV), 2.5 in the series with HBV L528M/ M552V (L528M/ M552V versus WT HBV) and 18 in the series on HBV M552V (M552V versus WT HBV). Also, in [2], the “cross-resistance to PMEA” value is “lack of cross-resistance”.
